Source: ChEMBL document CHEMBL1144461, “Targeted drug-carrying bacteriophages as antibacterial nanomedicines” (Antimicrob Agents Chemother, 2007)
Activity calls are given as the source filed them.

Assays:
Format in all cases: functional, organism-based
Streptococcus pyogenes = assay: Antibacterial activity against Streptococcus pyogenes
Escherichia coli = assay: Antibacterial activity against Escherichia coli O78
Staphylococcus aureus = assay: Antibacterial activity against Staphylococcus aureus COL

Measured: Activity

O=C(N[C@H](CO)[C@H](O)c1ccc([N+](=O)[O-])cc1)C(Cl)Cl
active: all assays above
